Laboratory results: patent US20250084091A1, “INHIBITORS OF SARS-COV-2” (The Texas A&M University System, priority 2021, published 2025)
Where two headings read alike, the source gives them in different places.

Legend:
[1] = target: SARS-CoV-2 main protease (Mpro) (Severe acute respiratory syndrome coronavirus 2, UniProt P0DTD1); test: biochemical
[2] = Uninfected host cell cytotoxicity counter screen; format: cell-based; settings: human
Procedure: Uninfected host cell cytotoxicity counter screen: HeLa-ACE2 cells were maintained as described for the infection assay and seeded in the assay-ready plates at 400 cells/well. Plates were incubated for 24 hours at 37° C. 5% CO2. To assess cell viability, the Image-iT DEAD green reagent was used according to manufacturer instructions. Cells were fixed with 4% paraformaldehyde, and counterstained with DAPI. Fixed cells are imaged as described above.
Viral replication data analysis: Data from the primary screen and the host cell cytotoxicity screen are normalized to neutral (DMSO) […] inhibitor controls (2.5 μM Remdesivir for antiviral effect and 10 μM puromycin for infected host cell toxicity). For the uninfected host cell cytotoxicity counter-screen 40 μM puromycin is used as the positive control. Concentration response experiments will be tested in triplicate.

HeLa-ACE2 cells = test: cells; format: cell-based; settings: Table 2, total cell count in infected plates
[3] = system: SARS-CoV-2 (strain USA-WA1/2020); test: microbe, parasite or virus in culture; format: cell-based
[4] = Severe acute respiratory syndrome coronavirus 2, Table 2, SARS-CoV-2 infected HeLa-ACE2 cells, read-out: CoV-2 HeLa EC50
[5] = Severe acute respiratory syndrome coronavirus 2, HeLa-ACE2, read-out: CoV-2 HeLa EC50, Table 2, SARS-CoV-2 infected HeLa-ACE2 cells

Row | SMILES | CC50 at 24 h [2] | EC50 (HeLa-ACE2 cells) | EC50 [3, 5] | other results
1 | Cc1cncc(C(=O)N2CCN(C3c4ccccc4C=Cc4ccccc43)CC2)c1 [NZ-784, (5-methyl-3-pyridyl)-[4-(2-tricyclo[9.4.0.03,8]pentadeca-1(11),3(8),4,6,9,12,14-heptaenyl)piperazin-1-yl]methanone] | 39.4 µM | > 9.61 µM |  | IC50 ([1]; Table 2, read-out: Enzyme IC50): 0.088 µM; EC50 [3, 4]: 0.36 µM
2 | O=C(c1cccnc1)N1CCN(C(c2ccccc2)c2cccnc2)CC1 (stereo not drawn) [MKP-1183, 1-[phenyl(pyridin-3-yl)methyl]-4-(pyridine-3-carbonyl)piperazine] | > 39.8 µM | > 9.61 µM |  | IC50 ([1]; Table 2, read-out: Enzyme IC50): 1.7 µM; EC50 [3, 4]: 4.34 µM
3 | O=C(c1cncc(Cl)c1)N1CCN(C(c2ccccc2)c2ccsc2)CC1 (stereo not drawn) [MKP-1221, 1-(5-chloropyridine-3-carbonyl)-4-[phenyl(thiophen-3-yl)methyl]piperazine] | > 39.8 µM | 0.556 µM |  | IC50 ([1]; Table 2, read-out: Enzyme IC50): 0.33 µM; EC50 [3, 4]: 0.831 µM
4 | Cc1cncc(C(=O)N2CCN(C(c3ccccc3)c3ccccc3)CC2=O)c1 [AA-637, 4-benzhydryl-1-(5-methylnicotinoyl)piperazin-2-one] | > 39.8 µM | > 9.61 µM | > 9.61 µM | IC50 ([1]; Table 2, read-out: Enzyme IC50): 0.09 µM
5 | O=C(c1cc(Br)cnc1Cl)N1CCN(C(c2ccccc2)c2ccccc2)CC1 [AA-606, (4-benzhydrylpiperazin-1-yl)(5-bromo-2-chloropyridin-3-yl)methanone] | > 39.8 µM | > 9.61 µM | > 9.61 µM | IC50 ([1]; Table 2, read-out: Enzyme IC50): > 10 µM
6 | O=C(c1cncc(Cl)c1)N1CCC(=C(c2ccccc2)c2ccccc2)CC1 [NZ-781, 3-chloro-5-[4-(diphenylmethylidene)piperidine-1-carbonyl]pyridine] | 35.8 µM | > 9.61 µM |  | IC50 ([1]; Table 2, read-out: Enzyme IC50): 0.11 µM; EC50 [3, 4]: 1.05 µM
7 | O=C(c1cncc2[nH]ccc12)N1CCN(C2c3ccccc3CS(=O)(=O)c3ccccc32)CC1 (stereo not drawn) [NZ-809, [4-(5,5-dioxo-6,11-dihydrobenzo[c][1]benzothiepin-11-yl)piperazin-1-yl]-(1H-pyrrolo[2,3-c]pyridin-4-yl)methanone] | > 39.8 µM | 0.111 µM |  | IC50 ([1]; Table 2, read-out: Enzyme IC50): 0.043 µM; IC50 ([1]; Table 3, select example compounds against mpro, read-out: Enzyme IC50): 0.015 µM; EC50 ([3]; Severe acute respiratory syndrome coronavirus 2, HeLa, Table 3, read-out: CoV-2 HeLa EC50): 0.088 µM; EC50 [3, 4]: 0.088 µM
8 | O=C(NC1CN(C(c2ccccc2)c2ccccc2)C1)c1cccnc1 [AA-603, N-(1-benzhydrylazetidin-3-yl)nicotinamide] | > 39.8 µM | > 9.61 µM | > 9.61 µM | 
9 | Nc1ncc(C(=O)N2CCN(C(c3ccccc3)c3ccccc3)CC2)cn1 [MKP-1322, 5-[4-(diphenylmethyl)piperazine-1-carbonyl]pyrimidin-2-amine] | > 39.8 µM | > 9.61 µM | > 9.61 µM | 
10 | Cc1oncc1C(=O)N1CCN(C(c2ccccc2)c2ccccc2)CC1 [MKP-1332, (4-benzhydrylpiperazin-1-yl)(5-methylisoxazol-4-yl)methanone] | > 39.8 µM | > 9.61 µM | > 9.61 µM | 
11 | N#CC(c1cccnc1)N1CCN(C(c2ccccc2)c2ccccc2)CC1 (stereo not drawn) [MKP-1306, 2-[4-(diphenylmethyl)piperazin-1-yl]-2-(pyridin-3-yl)acetonitrile] | > 39.8 µM | > 9.61 µM | > 9.61 µM | 
12 | O=C(c1cnc2ccccc2c1)N1CCN(C(c2ccccc2)c2ccccc2)CC1 [MKP-1167, 3-[4-(diphenylmethyl)piperazine-1-carbonyl]quinoline] | > 39.8 µM | > 9.61 µM | > 9.61 µM | 
13 | O=C(c1ccon1)N1CCN(C(c2ccccc2)c2ccccc2)CC1 [MKP-1324, 1-(diphenylmethyl)-4-(1,2-oxazole-3-carbonyl)piperazine] | > 39.8 µM | > 9.61 µM | > 9.61 µM | 
14 | O=C1CC(CC(=O)N2CCN(C3c4ccccc4CS(=O)(=O)c4ccccc43)CC2)c2ccccc2N1 (stereo not drawn) [NZ-811, 4-[2-[4-(5,5-dioxo-6,11-dihydrobenzo[c][1]benzothiepin-11-yl)piperazin-1-yl]-2-oxo-ethyl]-3,4-dihydro-1H-quinolin-2-one] | > 39.8 µM | > 9.61 µM | > 9.61 µM | 
15 | Cc1cncc(NC(=O)N2CCN(C(c3ccccc3)c3ccccc3)CC2)c1 [MKP-1323, 4-benzhydryl-N-(5-methylpyridin-3-yl)piperazine-1-carboxamide] | 31.7 µM | > 9.61 µM | > 9.61 µM | 
16 | Cc1cncc(CN2CCN(C(c3ccccc3)c3ccccc3)CC2=O)c1 [AA-645, 4-benzhydryl-1-((5-methylpyridin-3-yl)methyl)piperazin-2-one] | > 39.8 µM | > 9.61 µM | > 9.61 µM | 

Row | SMILES | CC50 at 24 h [2] | EC50 (HeLa-ACE2 cells) | EC50 [3, 5] | other results
17 | C=C(C)C(=O)N1CCN(C(c2ccccc2)c2ccccc2)CC1 [MKP-1219, 1-[4-(diphenylmethyl)piperazin-1-yl]-2-methylprop-2-en-1-one] | > 39.8 µM | > 9.61 µM | > 9.61 µM | 
18 | O=C1CC(C(=O)N2CCC(C(O)(c3ccccc3)c3ccccc3)CC2)CCN1 (stereo not drawn) [NZ-789, 4-[4-(hydroxydiphenylmethyl)piperidine-1-carbonyl]piperidin-2-one] | > 39.8 µM | > 9.61 µM | > 9.61 µM | 
19 | O=C(c1cncs1)N1CCN(C(c2ccccc2)c2ccccc2)CC1 [MKP-1318, 1-(diphenylmethyl)-4-(1,3-thiazole-5-carbonyl)piperazine] | > 39.8 µM | > 9.61 µM | > 9.61 µM | 
20 | Cc1cncc(CN2CCN(C(c3ccccc3)c3ccccc3)CC2)c1 [MKP-1307, 1-(diphenylmethyl)-4-[(5-methylpyridin-3-yl)methyl]piperazine] | > 39.8 µM | > 9.61 µM | > 9.61 µM | 
21 | Nc1ccc(C(=O)N2CCN(C(c3ccccc3)c3ccccc3)CC2)cn1 [MKP-1309, 5-[4-(diphenylmethyl)piperazine-1-carbonyl]pyridin-2-amine] | > 39.8 µM | > 9.61 µM | > 9.61 µM | 
22 | Cc1ccc(C(=O)N2CCN(C(c3ccccc3)c3ccccc3)CC2)cn1 [AA-612, (4-benzhydrylpiperazin-1-yl)(6-methylpyridin-3-yl)methanone] | > 39.8 µM | 0.863 µM |  | EC50 [3, 4]: 1.74 µM
23 | O=C(c1ccc(Cl)nc1)N1CCN(C2c3ccccc3CCc3ccccc32)CC1 [ZS-337, (6-chloro-3-pyridyl)-[4-(2-tricyclo[9.4.0.03,8]pentadeca-1(11),3(8),4,6,12,14-hexaenyl)piperazin-1-yl]methanone] | > 39.8 µM | > 9.61 µM | > 9.61 µM | 
24 | O=C(O)c1cncc(C(=O)N2CCN(C3c4ccccc4CCc4ccccc43)CC2)c1 [ZS-335, 5-[4-(2-tricyclo[9.4.0.03,8]pentadeca-1(11),3(8),4,6,12,14-hexaenyl)piperazine-1-carbonyl]pyridine-3-carboxylic acid] | > 39.8 µM | > 9.61 µM | > 9.61 µM | 
25 | O=C1CC(C(=O)N2CCC(C(O)(c3ccccc3)c3ccccc3)CC2)CN1 (stereo not drawn) [NZ-790, 4-[4-(hydroxydiphenylmethyl)piperidine-1-carbonyl]pyrrolidin-2-one] | > 39.8 µM | > 9.61 µM | > 9.61 µM | 
26 | Cc1cncc(C(=O)N2CC3CC(C2)N3C(c2ccccc2)c2ccccc2)c1 [AA-614, (6-benzhydryl-3,6-diazabicyclo[3.1.1]heptan-3-yl)(5-methylpyridin-3-yl)methanone] |  | > 9.61 µM | > 9.61 µM | CC50 at 24 h ([2]; Table 2, uninfected cells, 24 hours, read-out: Uninfected HeLa-ACE2 CC50): > 39.8 µM
27 | O=C(c1cccnc1Cl)N1CCN(C2c3ccccc3CCc3ccccc32)CC1 [ZS-333, (2-chloro-3-pyridyl)-[4-(2-tricyclo[9.4.0.03,8]pentadeca-1(11),3(8),4,6,12,14-hexaenyl)piperazin-1-yl]methanone] | > 39.8 µM | > 9.61 µM | > 9.61 µM | 
28 | c1ccc(C(c2ccccc2)N2CCN(c3nccc4ccncc34)CC2)cc1 [AA-649, 1-(4-benzhydrylpiperazin-1-yl)-2,7-naphthyridine] | > 39.8 µM | > 9.61 µM | > 9.61 µM | 
29 | O=C(c1cnc(Cl)c(Cl)c1)N1CCN(C(c2ccccc2)c2ccccc2)CC1 [AA-608, (4-benzhydrylpiperazin-1-yl)(5,6-dichloropyridin-3-yl)methanone] | > 39.8 µM | 0.863 µM |  | EC50 [3, 4]: 1.74 µM
30 | O=Cc1ccccc1C(=O)N1CCC(C(O)(c2ccccc2)c2ccccc2)CC1 [NZ-791, 2-[4-(hydroxydiphenylmethyl)piperidine-1-carbonyl]benzaldehyde] | > 39.8 µM | > 9.61 µM | > 9.61 µM | 
31 | N#Cc1ccc(C(=O)N2CCN(C(c3ccccc3)c3ccccc3)CC2)cn1 [MKP-1229, 5-[4-(diphenylmethyl)piperazine-1-carbonyl]pyridine-2-carbonitrile] | > 39.8 µM | > 9.61 µM | > 9.61 µM | 
32 | O=C(c1cncc2cc[nH]c12)N1CC2CCC(C1)N2C(c1cccc(F)c1)c1cccc(F)c1 [AA-663, [8-[bis(3-fluorophenyl)methyl]-3,8-diazabicyclo[3.2.1]octan-3-yl]-(1H-pyrrolo[3,2-c]pyridin-7-yl)methanone] |  |  |  | IC50 ([1]; Enzyme IC50, Table 2): 0.038 µM; IC50 ([1]; Enzyme IC50, Table 3, select example compounds against mpro): 0.014 µM; EC50 ([3]; Severe acute respiratory syndrome coronavirus 2, HeLa, read-out: CoV-2 HeLa EC50, Table 3): 0.063 µM
